Structures are written as SMILES.

The values below come from patent US6440967B1, “Combination of a GABAA alpha 5 inverse agonist and COX-2 inhibitor, NSAID, estrogen or vitamin E” (Merck & Co., Inc., priority 1998, dated 2002).

By melting point is commonly meant the temperature, or range, at which the solid turns liquid. Take `Cc1cc(-c2nnc3c4ccccc4c(OCc4cccc(Br)n4)nn23)no1` [Reference Example 2, 6-(6-Bromopyridin-2-yl)methyloxy-3-(5-methylisoxazol-3-yl)-1,2,4-triazolo[3,4-a]phthalazine]: the melting point lay within 247.5 to 249 °C.
